{"source": "patent US12545653B2", "about": "“Compound as PPAR agonist and application thereof” (USA Elixiria Biotech Inc., priority 2019, dated 2026)", "key": {"[1]": {"tested_on": "HEK 293T cells", "assay": "Inhibition of reactive oxygen species production (ROS-Glo H2O2 Assay)", "assay_type": "cell-based, human", "conditions": "18 hours incubation", "procedure": "Mitochondrial reactive oxygen species-induced oxidative stress is the source of many diseases. This experiment is used to test whether the carbonyl-containing cyclic compounds provided by the present invention can reduce the production of reactive oxygen species. HEK 293T cells were divided into 96-well plates at 5000 cells per well, cultured in a 37° C. carbon dioxide incubator with serum-free Duchenne's Modified Eagle's Medium (DMEM) for 6 hours, and then representatives for compounds listed in Table 2 and 3 were added to a final concentration of 0, 0.1, 0.3, 1, 3, 10, 30 micromole/L, with each concentration in triplicate. After 18 hours of incubation, the reactive oxygen species detection kit (ROS-Glo™ H2O2 Assay) and the GloMax microplate fluorescence detector (Promega, USA) were used to detect reactive oxygen species production. At the same time, pioglitazone was used as a control. The amount of fluorescence is positively related to the production of reactive oxygen species. A three-parameter Sigmoid function curve was used to fit the obtained data. The abscissa represents the logarithmic value of the concentration, and the ordinate represents the percentage of reduced reactive oxygen species production relative to those of the control. Then EC50 value was calculated with professional software."}, "[2]": {"tested_on": "LN-229 cells", "assay": "Brain cancer model, LN-229 cells injected into the striatum, tumor volume", "assay_type": "in vivo, mouse", "conditions": "mice with LN-229 cells in striatum, 5 mg/kg body weight/day", "procedure": "The treatment lasted for a total of 30 days. The compounds was dissolved in DMSO and mixed into food pellets. The animals were given ad libitum access to the pellets. […] The difference is significant with P<0.05."}, "[3]": {"tested_on": "dIoN-CCI rat model of trigeminal neuropathic pain", "assay": "Trigeminal neuralgia model (dIoN-CCI), Von Frey mechanical threshold", "conditions": "dIoN-CCI rats", "description": "(§1) A common rat model of trigeminal neuralgia is a chronic compression injury model (CCI) caused by ligation of the infraorbital nerve (IoN). In the present study, an improved rat model of trigeminal neuropathic pain was used, in which CCI is induced by ligation of distal segment of IoN (dIoN). Wild type male Sprague-Dawley rats with body weight 250 to 260 grams underwent dIoN-CCI surgery experiments. The mechanical threshold of pain in rats without surgery experiments will exceed 6 grams. If the dIoN-CCI surgery is successful, it will reduce the pain threshold to less than 2 grams.\n(§2) The mice were divided into the following 11 groups with 4 to 5 mice in each group. The formulation used for transdermal treatment is cream. […] The compound administration of each group starts on the third day after successful dIoN-CCI surgery. […] The method for detecting rat facial hypersensitivity is performed using Von Frey filaments. An analysis of variance (ANOVA) and Dunnett post hoc comparison test are used to compare the significance of the differences between different groups of data. The difference is significant with P<0.05."}, "[4]": {"tested_on": "rat model of hyperglycemia-induced nephropathy", "assay": "Hyperglycemia-induced nephropathy model (streptozotocin)", "assay_type": "in vivo", "conditions": "streptozotocin rats, 5 mg/kg body weight/day in food, 90 days", "procedure": "The method was as follows:\nWild type Sprague-Dawley rats were used. The compounds was dissolved in DMSO and mixed into food pellets. The animals were given ad libitum access to the pellets. […] In addition, 3 days before compound treatment, the animal of group 2 to 4 were given a single intraperitoneal injection of streptozotocin, and 3 days later, blood glucose levels were measured from tail veins using a glucose meter. Animals with blood glucose levels above 500˜650 milligrams per deciliter were considered as hyperglycemia and were used for further study. No any side effect, or significant body weight changes, or significant dietary changes were found during the administration. After 90 days after initiation of treatment, blood pressure values were measured with the tail cuff system. The day before the kidneys were harvested, animals were placed in metabolic cages for 24 h for urine collection, and albumin to creatinine ratio (ACR) was measured. Animals were then fasted for 12 hours and sacrificed under anesthesia with a 10% chloral hydrate solution (0.3 g/kg). Serum samples were isolated and biochemical parameters were analyzed with by enzyme colorimetry in an automatic analyzer (Roche) to determine the FBG (fasting blood glucose) level (unit millimole/L). In addition, fasting insulin (FINS) levels, where the units are milliIU/L, were determined by enzyme-linked immunosorbent assay (ELISA) method with anti-rat insulin antibodies, and TNF-α was detected by rat tumor necrosis factor-α (TNF-α) ELISA kit (BD). […] The difference is significant with P<0.05."}, "[5]": {"tested_on": "dIoN-CCI rat model of trigeminal neuropathic pain", "conditions": "in vivo", "description": "as §1, §2"}, "[6]": {"assay": "Blood-brain barrier permeability: brain concentration after a single injection", "assay_type": "in vivo, rat", "conditions": "male, rat, in vivo, ip, 10 mg/kg", "procedure": "The blood-brain barrier permeability of carbonyl-containing cyclic compounds is determined in in vivo studies. Healthy male rats used in the study were divided into compound group and control group. […] The brains were dissected, heated immediately at boiling water for 2 min, homogenized with methanol, and centrifuged. The upper layer was collected and dried under vacuum to remove solvents, and then resuspended in methanol. The above samples are filtered through a 0.45 micron nylon membrane, and then 20 microL of sample were load into a high-performance liquid chromatographic (HPLC) system (Model LC-16P, Shimadzu, Japan) to perform quantitative analysis."}}, "note": "Where “and” joins values, the source holds several entries; their conditions need not be identical. Equal entries are not always repeated."}
{"smiles": "CCc1ccc(CC/C=C/c2ccc3c(c2)C(=O)CC3)cc1", "note": "[ELB00824, (E)-6-(4-(4-ethylphenyl)but-1-en-1-yl)-2,3-dihydro-1H-inden-1-one]", "values": [{"measurement": "inhibition of active oxygen production (up to), compared to the DMSO control", "setting": "[1]; 0-30 micromole/L", "result": "up to 45%"}, {"measurement": "tumor volume at 30 days compared with disease control group", "setting": "[2]", "result": "significant tumor volume reduction"}, {"measurement": "duration of anti-allodynic effect (mechanical threshold 10 grams and above)", "setting": "[3]; IP, 20 mg/kg body weight", "result": 1.8, "unit": "h"}, {"measurement": "mechanical pain threshold after 1 hour of administration", "setting": "[3]; IP, 20 mg/kg body weight", "result": "12.8 ± 2.2", "unit": "g"}, {"measurement": "minimum effective anti-allodynic dose", "setting": "[3]; oral", "result": 3, "unit": "mg/kg"}, {"measurement": "mechanical threshold 2 hours after oral administration", "setting": "[3]; oral 3 mg/kg body weight, Von Frey", "result": "4.2 ± 0.8", "unit": "g"}, {"measurement": "duration of the anti-allodynic effect", "setting": "[3]; oral 10 mg/kg", "result": 2, "unit": "h"}, {"measurement": "mechanical pain threshold 2 hours after oral administration", "setting": "[3]; oral 10 mg/kg body weight, Von Frey", "result": "8.9 ± 2", "unit": "g"}, {"measurement": "duration of anti-allodynic effect (mechanical threshold 10 grams and above)", "setting": "[3]; oral, 20 mg/kg body weight", "result": 0.7, "unit": "h"}, {"measurement": "mechanical pain threshold after 1 hour of administration", "setting": "[3]; oral, 20 mg/kg body weight", "result": "6.8 ± 1.9", "unit": "g"}, {"measurement": "anti-allodynic property relative to pioglitazone", "setting": "[3]; oral, from minimum effective doses", "result": "about 100 times"}, {"measurement": "mechanical pain threshold after 1 hour of administration", "setting": "[3]; transdermal cream containing 7% ELB00824, 20 mg/kg body weight", "result": "19.8 ± 3.1", "unit": "g"}, {"measurement": "duration of anti-allodynic effect (mechanical threshold 10 grams and above)", "setting": "[3]; transdermal, 20 mg/kg body weight", "result": 2.3, "unit": "h"}, {"measurement": "blood TNF-α level compared with disease control group", "setting": "[4]", "result": "significant TNF-α level reduction"}, {"measurement": "insulin resistance index ISI=ln (FBG*FINS) compared with disease control group", "setting": "[4]", "result": "significant ISI increase"}, {"measurement": "urine albumin to creatinine ratio (ACR) compared with disease control group", "setting": "[4]", "result": "significant ACR reduction"}, {"measurement": "side effect at the time of administration", "setting": "[5]", "result": "no side effect"}, {"measurement": "Cmax", "setting": "[6]", "result": "16.4 µM and 4830 ng/mL"}, {"measurement": "AUC(0-t)", "setting": "[6]; AUC0-6 h", "result": 18700, "unit": "ng·h/mL"}, {"measurement": "AUC(0-t)", "setting": "[6]; AUC0-24 h", "result": 31500, "unit": "ng·h/mL"}]}
{"smiles": "CCc1ccc(CC/C=C/c2ccc3c(c2)C(=O)COC3)cc1", "note": "[ELB001046, (E)-6-(4-(4-ethylphenyl)but-1-en-1-yl)isochroman-4-one]", "values": [{"measurement": "EC50", "setting": "[1]; Homo sapiens, HEK-293T, 18 h", "result": "< 10", "unit": "µM"}]}
